Source: patent publication US10308685B2, “Inhibitory peptides of viral infection” (UNIVERSITY OF TENNESSEE RESEARCH FOUNDATION, priority 2014, dated 2019)
Where a SMILES comes first, the peptide text is derived from it. Where no end group is shown, it is not given here.

Legend:
[1] = target: HCMV expressing luciferase (Towne strain); type: cell-based, Human Cytomegalovirus; details: MRC-5 cells, peptide 30 min prior to virus
Procedure: A recombinant luciferase-expressing Towne strain of HCMV was used for each experiment. To obtain the virus, the virus was cultured in vitro on HFF cells. The virus was titered using a standard plaque assay.
Cells were cultured according to methods known to those of skill in the art. Briefly, human fetal lung fibroblasts (MRC-5, ATCC) were cultured in minimum essential media (MEM, HyClone) supplemented with fetal bovine serum (FBS, HyClone), and L-glutamine. Human foreskin fibroblasts (HFF, ATCC) were cultured in dulbecco's modified eagle medium (DMEM, GE HyClone) supplemented with FBS, L-glutamine and sodium pyruvate. Human aortic endothelial cells were cultured in EGM-2 Bullet Kit (Lonza) supplemented with FBS. Human retinal pigment epithelia cells (ARPE-19) were cultured in DMEM and Hams F12 medium (Lonza) and supplemented with FBS.
Efficacy of viral reduction was measured using a luciferase assay with HCMV expressing luciferase virus. Cells were cultured in a 24-well plate until they reached ˜80% confluency. The cells were washed with phosphate buffered saline (PBS) then treated with peptide. The control cells were treated with PBS supplemented with FBS. After peptide incubation, virus was added (100 RLU for MRC-5, HFF and 1000 RLU for HAEC, ARPE-19) for 1 h. […] After the addition of LAR to the supernatant the luminescence was quantified using a plate reader (BioTek). […]

trypsin = experiment: Proteolytic stability: trypsin incubation, then HCMV luciferase assay on MRC-5 cells; type: in vitro ADME; details: 200 μM peptide, 200 μg/ml trypsin, 37° C., 30 and 60 minutes
Procedure: FIG. 8. Proteolytic stability of p5 and Dp5R. 200 μM of each peptide, CGGY-p5 (SEQ ID NO: 22) and GGGY-Dp5R (SEQ ID NO: 24, D form), was incubated with 200 μg/ml of trypsin for 30 minutes and 60 minutes then added to MRC-5 cells 30 minutes prior to the addition of virus. Data is representative of three separate experiments with three repeats ±SD.
Without wishing to be bound by any particular theory, this increased binding could be due to proteolytic stability of the D-form. Trypsin was thus used to test the proteolytic stability of p5 and Dp5R. More particularly, each peptide was incubated at 37° C. for 30 minutes and 60 minutes with 200 μg/ml of trypsin then added to cells 30 minutes before the addition of virus.

MCMV [2] = type: cell-based, Murine Cytomegalovirus; details: for inhibition of MCMV infection (plaque reduction): 500 μg/ml, mouse embryonic fibroblasts incubated with peptide 30 min prior to virus
Procedure: Murine Cytomegalovirus (MCMV) RM4503 was cultured in vitro in MEF 10.1 cells. The virus stock was titered using plaque assay (described below) and stored at −80° C. Human Cytomegalovirus (HCMV) TB40/E was obtained from (46, 47) and cultures in vitro in HFF cells. The virus stock was titered using plaque assay and stored at −80° C. HSV-1 and HSV-2 were cultured in vitro in VERO cells. The virus stock was titered using plaque assay and stored at −80° C.
Peptides were screened for their ability to reduce viral infection using a plaque reduction assay. Cells were cultured in 12-well (VERO) or 24-well culture plates (MEF 10.1 and HFF). When the cells reached ˜80% confluence the media was removed and the cells washed once with PBS before addition of peptide. As a control, cells were incubated with PBS alone. After a 30 min of incubation with peptide in PBS, the virus was added and incubated for another 90 min (HSV and HCMV) or 60 min (MCMV). Following virus incubation the peptide/virus mixture was removed and replaced with 0.75% carboxy-methyl cellulose (Sigma Aldrich, St. Louis, Mo.)+complete media (CMC) or 0.5% agarose (Lonza, Rockland, Me.) in complete media. The plates were incubated at 37° C. in 5% CO2 for 4 days when plaques began to develop, following which they were stained with Coomassie stain (AMRESCO, Solon, Ohio). Plaques were counted manually and data analyzed using Prism 5.0 (GraphPad Software, La Jolla, Calif.). Data were expressed as % plaques relative to the average number of plaques in the PBS-treated wells.
In the initial screening assays all peptides were tested at a single concentration (500 μg/ml) using a plaque-reduction assay, in which mouse embryonic fibroblasts were incubated with the peptides for 30 min prior to the addition of virus.
In the infectivity assays described above the peptide and virus were co-incubated with the cells. Therefore to ensure the peptide was not directly inactivating the virus, MCMV was incubated with 100 μM (˜20× the IC50) peptide at 37° C. for 1 h, diluted to an ineffective peptide concentration (1 μM) and fibroblast infection rates measured.
To determine at which stage of the MCMV entry cycle the peptide interferes, four different peptide treatment protocols were tested, 1) 30 min. prior to infection (pre-adsorption) 2) simultaneously with virus (during adsorption) 3) after letting the virus adsorb to the cells at 4° C. for lhr (post adsorption) or 4) after allowing the virus to fuse with the cell membrane at 37° C. for lhr (post fusion) (FIG. 3(B)).

MEF 10.1 cells = experiment: Visualization of bound biotinylated peptide on fixed MEF cells (fluorescence); type: binding, Mouse; details: 1.6 μg/mL, streptavidin fluorescence
Procedure: Coverslips with fixed MEF cells prepared, washed in PBS and blocked with 1% BSA/PBS for 5 min. Following a PBS wash the nuclei were stained by using Hoechst (Life Technologies Molecular Probes, Grand Island, N.Y.) 1:100 in H2O— for 30 min at 37° C. Tissues were then blocked using a casein block solution (Scytek) for 5 min, AVIDIN/Biotin blocks (VECTOR, Burlingame, Calif.) for 20 min each at room temperature (RT) followed by a 5 min PBS wash. Biotinylated GGGY-p5+14 (SEQ ID NO: 25) or p5G (control) at 1.6 μg/mL in PBS was added and the tissues incubated overnight at 4° C. Following a PBS wash Alexa Fluor 594-conjugated streptavidin (Molecular Probes) was added at a 1:200 dilution in PBS for lhr at RT. Cells were then permeabilized by addition of 0.2% Triton X-100 (Sigma) in PBS for 10 min at RT and washed with a solution of 1% BSA in PBS for 30 min. The cells were then stained with Alexa Fluor 488-conjugated phalloidin (Molecular Probes) 1:100 dilution of stock in 1% BSA/PBS, for 45 min. at RT to visualize cytoskeleton. Slides were cover-slipped using a fluorescent mounting medium (Dako, Carpinteria, Calif.) to minimize photobleaching.

[3] = mouse, in vivo; cited from earlier work
MCMV [4] = experiment: Interference of peptide mediated reduction by heparin (MCMV plaque reduction); type: cell-based, Murine Cytomegalovirus
Procedure: Peptide GGGY-p5+14 (SEQ ID NO: 25) (at 100 μM) was pre-incubated with heparin sodium salt (Acros Organics, NJ) at different concentrations for 1 h at 37° C. Following which the heparin/peptide mix was added to the cells and incubated for 30 min at 37° C. Following the incubation, the supernatant was aspirated and cells washed once with PBS to remove unbound/excess heparin or peptide. The cells were subsequently infected with ˜100 pfu/well of MCMV. To test whether heparin treatment of cells interferes with virus infection, MEF 10.1 cells in a 24 well dish were pre-incubated with different concentrations of heparin for 1 hour and washed as described above. Following the pre-incubation infection was initiated as mentioned above. Finally to test the effect of heparin treatment on the infectivity of virus, MCMV was incubated with different concentration of heparin for lhr before infecting cells. For all these treatments, the virus was removed lhr post infection and cells overlaid with CMC. Plates were incubated for 4 days before staining and counting the plaques. Plaque reduction assay was performed as mentioned above.

## C[C@@H](NC(=O)[C@@H](CCC(N)=O)NC(=O)[C@@H](C)NC(=O)[C@@H](CCCNC(=N)N)NC(=O)[C@@H](CCC(N)=O)NC(=O)[C@@H](C)NC(=O)[C@@H](CCCNC(=N)N)NC(=O)[C@@H](CCC(N)=O)NC(=O)[C@@H](C)NC(=O)[C@@H](CCC(N)=O)NC(=O)[C@@H](CCCNC(=N)N)NC(=O)[C@@H](C)NC(=O)[C@@H](CCC(N)=O)NC(=O)[C@@H](CCCNC(=N)N)NC(=O)[C@@H](C)NC(=O)[C@@H](CCC(N)=O)NC(=O)[C@@H](C)NC(=O)[C@@H](CCCNC(=N)N)NC(=O)[C@@H](CCC(N)=O)NC(=O)[C@@H](C)NC(=O)[C@@H](CCCNC(=N)N)NC(=O)[C@@H](CO)NC(=O)[C@@H](Cc1ccc(O)cc1)NC(=O)CNC(=O)CNC(=O)CN)C(=O)N[C@H](CCCNC(=N)N)C(=O)N[C@H](CCC(N)=O)C(=O)N[C@H](C)C(=O)N[C@H](CCCNC(=N)N)C(=O)N[C@H](CCC(N)=O)C(=O)O [GGGY-Dp5R] (HELM PEPTIDE1{G.G.G.[dY].[dS].[dR].[dA].[dQ].[dR].[dA].[dQ].[dA].[dR].[dQ].[dA].[dR].[dQ].[dA].[dQ].[dR].[dA].[dQ].[dR].[dA].[dQ].[dA].[dR].[dQ].[dA].[dR].[dQ]}$$$$V2.0; N-terminus and C-terminus assumed)
[1]
  IC50: ~75 µM
trypsin
  ability to reduce infection after incubation with trypsin: retained its ability to reduce infection

## CGGYSEAQEAQAEQAEQAQEAQEAQAEQAEQ (Peptide CGGY-p5e Synthetic Construct)
MCMV [2]
  inhibition of MCMV infection (plaque reduction): did not reduce MCMV infection

## CGGYSGAQGAQAGQAGQAQGAQGAQAGQAGQ (also: biotinylated) [CGGY-p5G]
MCMV [2]
  inhibition of MCMV infection (plaque reduction): did not reduce MCMV infection
MEF 10.1 cells
  binding to mouse fibroblasts in culture: did not bind to cells

## CGGYSKAQKAQAKQAKQAQKAQKAQAKQAKQ [CGGY-p5]
[1]
  IC50: ~60 µM
trypsin
  ability to reduce infection after incubation with trypsin: only able to reduce viral infection in cells when it had not been treated with trypsin
[3]
  peptide binding to GAGs expressed in healthy organs or tissues: no evidence of peptide binding to GAGs expressed in healthy organs or tissues

## CGGYSLAQLAQALQALQAQLAQLAQALQALQ (Peptide CGGY-p5L Synthetic Construct)
MCMV [2]
  inhibition of MCMV infection (plaque reduction): did not reduce MCMV infection

## GGGYSRAQRAQARQARQAQRAQRAQARQARQ (CGGY-p5R Peptide Synthetic Construct) [GGGY-p5R]
MCMV [2]; 500 μg/ml screen, FIG. 1(A)
  blocks viral infection better compared to peptide p5 (CGGY-p5): 4 fold

## MPRRRRIRRRQK (Peptide G2 Synthetic Construct) [reference compound]
MCMV [2]; 10 μM
  reduction in infection (MCMV): ineffective
MCMV [2]; 100 μM
  inhibition of MCMV infection: effectively inhibited

## heparin sodium salt
MCMV [4]; cells pre-incubated with heparin 1 hour prior to virus addition
  MCMV infection after pre-incubation of the cells with heparin: did not alter MCMV infection
MCMV [4]; heparin concentrations >2 μg/mL
  reduction of virus infection after pre-incubation of virus with heparin: > 80%
